The results in this text go back to patent US20260217672A1, “BENZAMIDE COMPOUNDS FOR TREATMENT OF BACTERIAL INFECTIONS” (Hoffmann-La Roche Inc., priority 2022, published 2026).

Assay [1] concerns Escherichia coli ATCC 25922. The assay can be described thus: Minimal Inhibitory Concentration (MIC) broth dilution assay. Format: cell-based. The note with it: ATCC25922, 20 h, read-out: MIC Escherichia coli ATCC 25922. The method, then:
(§1) The antibacterial activity of the compounds of the present invention was evaluated against the commonly used quality control strain Escherichia coli ATCC 25922 and the rifampin-resistant mutant strain Klebsiella pneumonia ATCC 43816. Both were originally derived from human clinical samples and are available from ATCC (American Type Culture Collection). The in vitro potency of compounds to inhibit Escherichia coli (ATCC 25922) and Klebsiella pneumonia (ATCC 43816) growth was assessed by the MIC (Minimal Inhibitory Concentration) broth dilution method. Specifically compound dilutions were prepared from 10 mM DMSO stock solutions as follows: i) serial 2-fold dilution in 20 μL DMSO were prepared in a master plate (Greiner, Cat No: 651201), ii) 180 μL sterile distilled water was added to each aliquot and iii) 10 μL diluted compounds were transferred into a new assay plate (Costar, 3599).
(§2) Vials of each test microorganisms were maintained frozen in the vapor phase of a liquid nitrogen freezer. Single-use frozen vials of the two strains Escherichia coli ATCC 25922 (KWIKSTIK, 0335K) and Klebsiella pneumonia ATCC 43816, with predetermined CFU/mL, were taken out from the freezer, thawed at room temperature, and diluted in Cation-Adjusted Mueller Hinton Broth (CAMHB) to achieve a final inoculum of 5×10^5 CFU/mL. 90 μL bacteria containing broth was dispensed to the assay plate containing the pre-dispensed compound dilutions and mixed by pipetting 5 times.
(§3) Then the assay plates were incubated for 20 hours at 35° C. in ambient air. Following incubation, the MIC ([…]), the lowest concentration of drug that inhibits visible growth of the microorganism was read with the help of a magnification mirror and recorded.

The test system of assay [2] is Klebsiella pneumonia ATCC 43816. The assay is described as above. Conditions: Klebsiella pneumoniae, ATCC43816, 20 h, read-out: MIC Klebsiella pneumoniae ATCC43816. Format: cell-based. The protocol:
as §1, §2, §3

Values after ≈ are worked out from the molar mass of the structure shown.

Broadly, the MIC is the lowest concentration found to suppress growth. `O=C(Nc1ccc(S(=O)(=O)N2CCN(c3cc(C(F)(F)F)cc(Cl)n3)CC2)cc1)c1cccc(N2C[C@H]3CN[C@H]3C2)c1` (stereo in doubt) [Example 052, N-[4-[4-[6-Chloro-4-(trifluoromethyl)-2-pyridyl]piperazin-1-yl]sulfonylphenyl]-3-[3,6-diazabicyclo[3.2.0]heptan-3-yl]benzamide]: the MIC came out at 1.1 µg/mL (≈ 1.77 µM) in assay [1] and 2.3 µg/mL (≈ 3.7 µM) in assay [2].

With `NCCC1CCCN1Cc1ccc(C(=O)Nc2ccc(S(=O)(=O)N3CCN(c4cc(C(F)(F)F)cc(Cl)n4)CC3)cc2)cc1` (stereo in doubt) [Example 072, N-[4-[4-[6-chloro-4-(trifluoromethyl)-2-pyridyl]piperazin-1-yl]sulfonylphenyl]-4-[[(2S)-2-(2-aminoethyl)pyrrolidin-1-yl]methyl]benzamide], the MIC in assay [1] is 1 µg/mL (≈ 1.54 µM); in assay [2], 2 µg/mL (≈ 3.07 µM).

Regarding `NCCCNCc1ccc(C(=O)Nc2ccc(S(=O)(=O)N3CCN(c4cc(C(F)(F)F)ccn4)CC3)cc2)cc1` [Example 002, 4-[(3-Aminopropylamino)methyl]-N-[4-[4-[4-(trifluoromethyl)-2-pyridyl]piperazin-1-yl]sulfonylphenyl]benzamide], the results for the MIC in assay [1] and in assay [2] were 1.8 µg/mL (≈ 3.12 µM) and 5.4 µg/mL (≈ 9.36 µM), respectively.

Take `NCCCNCc1ccc(C(=O)Nc2ccc(S(=O)(=O)N3CCN(c4cc(C(F)(F)F)c(Cl)cn4)CC3)cc2)cc1` [Example 003, 4-[(3-Aminopropylamino)methyl]-N-[4-[4-[5-chloro-4-(trifluoromethyl)-2-pyridyl]piperazin-1-yl]sulfonylphenyl]benzamide]: the MIC in assay [1] stood at 1.4 µg/mL (≈ 2.29 µM); in assay [2], 3.8 µg/mL (≈ 6.22 µM).

As for `NCCCNCc1ccc(C(=O)Nc2ccc(S(=O)(=O)N3CCN(c4cc(Cl)cc(C(F)(F)F)c4)CC3)cc2)cc1` [Example 004, 4-[(3-Aminopropylamino)methyl]-N-[4-[4-[3-chloro-5-(trifluoromethyl)phenyl]piperazin-1-yl]sulfonylphenyl]benzamide], the MIC in assay [1] was 1.9 µg/mL (≈ 3.11 µM); in assay [2], 3.8 µg/mL (≈ 6.23 µM).

For `NCCCNCc1ccc(C(=O)Nc2ccc(S(=O)(=O)N3CCN(c4cc(C(F)(F)F)nc(Cl)n4)CC3)cc2)cc1` [Example 005, 4-[(3-Aminopropylamino)methyl]-N-[4-[4-[2-chloro-6-(trifluoromethyl)pyrimidin-4-yl]piperazin-1-yl]sulfonylphenyl]benzamide], the MIC in assay [1] was 1.9 µg/mL (≈ 3.1 µM); in assay [2] it was 7.7 µg/mL (≈ 12.6 µM).

Consider `NCCCNCc1ccc(C(=O)Nc2ccc(S(=O)(=O)N3CCN(c4cc(C(F)(F)F)nc(N)n4)CC3)cc2)cc1` [Example 006, 4-[(3-Aminopropylamino)methyl]-N-[4-[4-[2-amino-6-(trifluoromethyl)pyrimidin-4-yl]piperazin-1-yl]sulfonylphenyl]benzamide], for which the figures for the MIC in assay [1] and in assay [2] were 3.7 µg/mL (≈ 6.24 µM) and 15 µg/mL (≈ 25.3 µM), respectively.

Turning to `NCCCNCc1ccc(C(=O)Nc2ccc(S(=O)(=O)N3CCN(c4cc(Br)cc(Cl)n4)CC3)cc2)cc1` [Example 007, 4-[(3-Aminopropylamino)methyl]-N-[4-[4-(4-bromo-6-chloro-2-pyridyl)piperazin-1-yl]sulfonylphenyl]benzamide], the MIC in assay [1] and in assay [2] was 0.97 µg/mL (≈ 1.56 µM) in each case.

`NCCCNCc1ccc(C(=O)Nc2ccc(S(=O)(=O)N3CCN(c4cc(C(F)(F)F)c(C5CC5)cn4)CC3)cc2)cc1` [Example 008, 4-[(3-Aminopropylamino)methyl]-N-[4-[4-[5-cyclopropyl-4-(trifluoromethyl)-2-pyridyl]piperazin-1-yl]sulfonylphenyl]benzamide]: in assay [2], the MIC stood at 7.7 µg/mL (≈ 12.5 µM).

Take `NCCCNCc1ccc(C(=O)Nc2ccc(S(=O)(=O)N3CCN(c4cc(C(F)(F)F)cc(OC5CC5)n4)CC3)cc2)cc1` [Example 009, 4-[(3-Aminopropylamino)methyl]-N-[4-[4-[6-(cyclopropoxy)-4-(trifluoromethyl)-2-pyridyl]piperazin-1-yl]sulfonylphenyl]benzamide]: the MIC was 5.4 µg/mL (≈ 8.53 µM) in assay [1] and 11 µg/mL (≈ 17.4 µM) in assay [2].

For the molecule `CCOc1cc(C(F)(F)F)cc(N2CCN(S(=O)(=O)c3ccc(NC(=O)c4ccc(CNCCCN)cc4)cc3)CC2)n1` [Example 010, 4-[(3-Aminopropylamino)methyl]-N-[4-[4-[6-ethoxy-4-(trifluoromethyl)-2-pyridyl]piperazin-1-yl]sulfonylphenyl]benzamide], the MIC is 5.3 µg/mL (≈ 8.54 µM) in assay [1] and 11 µg/mL (≈ 17.7 µM) in assay [2].

In the case of `CCc1cc(C(F)(F)F)cc(N2CCN(S(=O)(=O)c3ccc(NC(=O)c4ccc(CNCCCN)cc4)cc3)CC2)n1` [Example 011, 4-[(3-Aminopropylamino)methyl]-N-[4-[4-[6-ethyl-4-(trifluoromethyl)-2-pyridyl]piperazin-1-yl]sulfonylphenyl]benzamide], the results for the MIC in assay [1] and in assay [2] were 3.8 µg/mL (≈ 6.28 µM) and 7.6 µg/mL (≈ 12.6 µM), respectively.

In the case of `Cc1cnc(N2CCN(S(=O)(=O)c3ccc(NC(=O)c4ccc(CCNCCCN)cc4)cc3)CC2)cc1C(F)(F)F` [Example 013, 4-[2-(3-Aminopropylamino)ethyl]-N-[4-[4-[5-methyl-4-(trifluoromethyl)-2-pyridyl]piperazin-1-yl]sulfonylphenyl]benzamide], the MIC in assay [1] amounted to 0.94 µg/mL (≈ 1.55 µM).

For the molecule `NCCCNCCc1ccc(C(=O)Nc2ccc(S(=O)(=O)N3CCN(c4cc(Cl)c(Cl)cn4)CC3)cc2)cc1` [Example 014, 4-[2-(3-Aminopropylamino)ethyl]-N-[4-[4-(4,5-dichloro-2-pyridyl)piperazin-1-yl]sulfonylphenyl]benzamide], the MIC stood at 15 µg/mL (≈ 25.4 µM) in assay [1] and 30 µg/mL (≈ 50.7 µM) in assay [2].

Regarding `N#Cc1cc(N2CCN(S(=O)(=O)c3ccc(NC(=O)c4ccc(CCNCCCN)cc4)cc3)CC2)nc(C(F)(F)F)c1` [Example 015, 4-[2-(3-Aminopropylamino)ethyl]-N-[4-[4-[4-cyano-6-(trifluoromethyl)-2-pyridyl]piperazin-1-yl]sulfonylphenyl]benzamide], the MIC in assay [1] turned out to be 1.9 µg/mL (≈ 3.09 µM); in assay [2] it was 3.8 µg/mL (≈ 6.17 µM).

`N#Cc1cc(C(F)(F)F)cc(N2CCN(S(=O)(=O)c3ccc(NC(=O)c4ccc(CCNCCCN)cc4)cc3)CC2)n1` [Example 016, 4-[2-(3-Aminopropylamino)ethyl]-N-[4-[4-[6-cyano-4-(trifluoromethyl)-2-pyridyl]piperazin-1-yl]sulfonylphenyl]benzamide]: the MIC in assay [1] worked out at 1.9 µg/mL (≈ 3.09 µM); in assay [2], 3.8 µg/mL (≈ 6.17 µM).

On to `CC(F)(F)c1cc(Cl)nc(N2CCN(S(=O)(=O)c3ccc(NC(=O)c4ccc(CCNCCCN)cc4)cc3)CC2)c1` [Example 017, 4-[2-(3-Aminopropylamino)ethyl]-N-[4-[4-[6-chloro-4-(1,1-difluoroethyl)-2-pyridyl]piperazin-1-yl]sulfonylphenyl]benzamide], for which the MIC in assay [1] and in assay [2] was 0.97 µg/mL (≈ 1.56 µM) each time.

With `Cc1cc(C(F)(F)F)cc(N2CCN(S(=O)(=O)c3ccc(NC(=O)c4cccc(CNCCCN)c4)cc3)CC2)n1` [Example 018, 3-[(3-Aminopropylamino)methyl]-N-[4-[4-[6-methyl-4-(trifluoromethyl)-2-pyridyl]piperazin-1-yl]sulfonylphenyl]benzamide], the values for the MIC in assay [1] and in assay [2] were 0.64 µg/mL (≈ 1.08 µM) and 2.6 µg/mL (≈ 4.4 µM), respectively.

`COC(=O)c1cc(Cl)nc(N2CCN(S(=O)(=O)c3ccc(NC(=O)c4cccc(CNCCCN)c4)cc3)CC2)c1` [Example 019, Methyl 2-[4-[4-[[3-[(3-aminopropylamino)methyl]benzoyl]amino]phenyl]sulfonylpiperazin-1-yl]-6-chloro-pyridine-4-carboxylate]: the figures for the MIC in assay [1] and in assay [2] were 2.6 µg/mL (≈ 4.33 µM) and 5.2 µg/mL (≈ 8.65 µM), respectively.

Consider `CC1CN(c2cc(C(F)(F)F)cc(Cl)n2)CCN1S(=O)(=O)c1ccc(NC(=O)c2cccc(CNCCCN)c2)cc1` (stereo not drawn) [Example 021, 3-[(3-Aminopropylamino)methyl]-N-[4-[4-[6-chloro-4-(trifluoromethyl)-2-pyridyl]-2-methyl-piperazin-1-yl]sulfonylphenyl]benzamide], for which the MIC in assay [1] is 3.9 µg/mL (≈ 6.24 µM); in assay [2], 7.8 µg/mL (≈ 12.5 µM).

For the molecule `CC1CN(S(=O)(=O)c2ccc(NC(=O)c3cccc(CNCCCN)c3)cc2)CCN1c1cc(C(F)(F)F)cc(Cl)n1` (stereo not drawn) [Example 022, 3-[(3-Aminopropylamino)methyl]-N-[4-[4-[6-chloro-4-(trifluoromethyl)-2-pyridyl]-3-methyl-piperazin-1-yl]sulfonylphenyl]benzamide], the MIC in assay [1] and in assay [2] was 3.9 µg/mL (≈ 6.24 µM) throughout.

Turning to `O=C1CC(CNCc2cccc(C(=O)Nc3ccc(S(=O)(=O)N4CCN(c5cc(C(F)(F)F)cc(Cl)n5)CC4)cc3)c2)CN1` (stereo not drawn) [Example 085, N-[4-[4-[6-chloro-4-(trifluoromethyl)-2-pyridyl]piperazin-1-yl]sulfonylphenyl]-3-[[(5-oxopyrrolidin-3-yl)methylamino]methyl]benzamide], in assay [1], the MIC was determined as 1.2 µg/mL (≈ 1.84 µM).

Take `CN(C)C(=O)CCNCc1cccc(C(=O)Nc2ccc(S(=O)(=O)N3CCN(c4cc(C(F)(F)F)cc(Cl)n4)CC3)cc2)c1` [Example 086, N-[4-[4-[6-chloro-4-(trifluoromethyl)-2-pyridyl]piperazin-1-yl]sulfonylphenyl]-3-[[[3-(dimethylamino)-3-oxo-propyl]amino]methyl]benzamide]: in assay [1], the MIC amounted to 2.4 µg/mL (≈ 3.67 µM).
